Here are results for one compound from US9345682B2, “Inhibition of STAT3 signal transduction for human cancer therapy” (University of South Florida, priority 1999, dated 2016).

One experiment concerns Bcl-xL. Description: Bcl-xL expression (RT-PCR, Western blot) in U266 cells. In kind it is cell-based, human. Further details: dose or concentration left out as unconfirmed. On the procedure:
Cells are lysed in a buffer composed of 50 mM Tris-Cl, pH 7.4, 5 mM EDTA, 150 mM NaCl, and 0.5% Triton-X 100 containing 1 mg/ml leupeptin and aprotinin, and 1 mM PMSF. Protein content of the cell lysates is quantified by the Bradford assay (Bio-Rad), and […] total protein is dissolved in Laemmli SDS-PAGE sample buffer prior to separation by 10% SDS-PAGE. Proteins are transferred to PVDF membrane and Western blot analysis is performed by standard techniques with ECL detection (Amersham). The Bcl-xL antibody, clone 124 (Dako), is used at a 1:2000 dilution. The Bcl-xL, antibody, clone S-18 (Santa Cruz Biotechnology), is used at a 1:500 dilution. Blots are quantified by densitometry and expression levels were normalized to b-actin (Sigma).
Total RNA is isolated by lysis in guanidine isothiocyanate followed by centrifugation through a cesium chloride gradient. cDNA is prepared from 200 ng of total RNA in a […] reaction with AMV-RT (Boehringer-Mannheim). […] Tem ml of PCR products are electrophoresed on a 5% acrylamide gel and quantified by phosphorimaging using ImageQuant software (Molecular Dynamics).
In general terms: A western blot detects proteins with antibodies after separation by electrophoresis.

Experiment [1] relates to U266 cells. As to the kind of experiment: Cell cycle analysis and spontaneous cell death of U266 cells. In kind it is cell-based, human. The method, then: (§1) For surface detection of the Fas receptor, 10^6 cells are suspended in […] PBS with 2.5 mg/ml mouse IgM (Sigma) and […] UB2 antibody (MBL) or IgG1, isotype control serum (Dako). Following 30 min incubation at room temperature, cells are washed with PBS, and incubated in the dark for 30 min with goat anti-mouse Ig-FITC. Fluorescence is measured on a FACScan flow cytometer and analyzed using CellQuest software (Becton Dickinson). For cell cycle analysis, 10^6 cells are fixed in ice-cold ethanol for a minimum of 2 h, washed with PBS, and stained with 5 mg/ml propidium iodide (PI) and […] at 37° C. for 30 min prior to analysis by flow cytometry. Sensitivity to Fas-mediated apoptosis is determined by exposing cells to 500 ng/ml agonistic antibody (CH-11, MBL) or 100 ng/ml Fas ligand (Alexis) for 18-24 h. Apoptosis is measured by staining with Annexin V-FITC (Clontech) and flow cytometry analysis. Fas-specific death is calculated as (% Annexin V positive cells in the CH-11 treated population)−(% Annexin V positive cells in the IgM control population). Programmed cell death in cells transfected with the bicistronic green fluorescent protein vectors (pIRES-EGFP or pIRES-Stat3b) is analyzed after staining with Annexin V-PE (Pharmingen) by two color flow cytometry analysis. […]

For experiment [2], the system named is U266 cells. As to the kind of experiment: Fas-mediated apoptosis (Annexin V, flow cytometry) in U266 cells. In kind it is cell-based, human. On the procedure:
For surface detection of the Fas receptor, 10^6 cells are suspended in […] PBS with 2.5 mg/ml mouse IgM (Sigma) and […] UB2 antibody (MBL) or IgG1, isotype control serum (Dako). Following 30 min incubation at room temperature, cells are washed with PBS, and incubated in the dark for 30 min with goat anti-mouse Ig-FITC. Fluorescence is measured on a FACScan flow cytometer and analyzed using CellQuest software (Becton Dickinson). For cell cycle analysis, 10^6 cells are fixed in ice-cold ethanol for a minimum of 2 h, washed with PBS, and stained with 5 mg/ml propidium iodide (PI) and […] at 37° C. for 30 min prior to analysis by flow cytometry. […] Apoptosis is measured by staining with Annexin V-FITC (Clontech) and flow cytometry analysis. Fas-specific death is calculated as (% Annexin V positive cells in the CH-11 treated population)−(% Annexin V positive cells in the IgM control population). Programmed cell death in cells transfected with the bicistronic green fluorescent protein vectors (pIRES-EGFP or pIRES-Stat3b) is analyzed after staining with Annexin V-PE (Pharmingen) by two color flow cytometry analysis. Apoptotic morphology of DAPI-stained nuclei and green/red fluorescence is confirmed by fluorescence microscopy.
Background: Flow cytometry measures light scatter and fluorescence of single cells or particles in a stream.

The subject of a further experiment is 8226 cells. As to the kind of experiment: Fas-mediated apoptosis (Annexin V, flow cytometry) in 8226 cells. The following applies: IL-6-independent 8226 cells, AG490 treatment. Type of experiment: cell-based, human. The method, then: as §1
Another experiment concerns MOPC tumors. As to the kind of experiment: TUNEL assay of MOPC tumors. Type of experiment: in vivo, BALB/c mice. The following applies: regressing MOPC tumors. The method, then:
Terminal deoxynucleotidyltransferase-mediated dUTP-Digoxigenin nick-end-labeling (TUNEL) assay. MOPC tumors that receive either AG-490 or 50% DMSO treatment are used for this assay. Three-μm sections from paraffinized tissues are dewaxed and rehydrated according to standard protocols. After incubation with proteinase K (30 min at 21° C.), the TUNEL reaction mixture (Boehringer Mannheim, Indianapolis, Ind.) is added to rinsed slides, which are incubated in a humidified chamber for […] at 37° C. This is followed by incubating with Converter-AP (50 ml) and substrate solution (50 ml). The reaction is visualized by light microscopy.

As to `N#C/C(=C\c1ccc(O)c(O)c1)C(=O)NCc1ccccc1` [AG490], the “bcl-x mRNA expression” value in the experiment on Bcl-xL (AG490, 24 hours) is given as “significant reduction”. In the experiment on Bcl-xL (AG490, 30 hours), the Bcl-xL protein levels result is “nearly absent”. The spontaneous cell death entry with U266 cells [1] (AG490, 72 hours) was “extensive spontaneous cell death”. Besides, the “cells accumulating in G1” value in the experiment on U266 cells [1] (AG490 for 48 h) was 70%. In addition, in the experiment on U266 cells [2] (AG490 24 hours then CH-11 12 hours, 7 independent experiments), the Fas-specific apoptosis is reported as 18-41%. Further, the cells undergoing apoptosis entry in the experiment with U266 cells [2] (AG490 24 hours then CH-11 additional 12 hours) is “up to 90%”. The “sensitivity to Fas-mediated cell death” value in the experiment on 8226 cells was “does not enhance”. Further, in the experiment on MOPC tumors, the “apoptotic tumor cells (TUNEL)” value is “high numbers of apoptotic cells”.
